# Measured values as given in US10344025B2, “GLS1 inhibitors for treating disease” (Board of Regents, The University of Texas System, priority 2014, dated 2019).
# Tests used:
# [1] = molecular target: purified recombinant human GAC (GLS1) (Homo sapiens (Human), UniProt O94925); assay: GLS1 Enzymatic Activity Assay (dual-coupled enzymatic assay, resorufin/Amplex UltraRed readout); format: biochemical;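 further: glutamate from GAC coupled via glutamate oxidase and peroxidase to resorufin, read as fluorescence (ex 530, em 590 nm) kinetically or at 20 min, four-parameter logistic IC50 fit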
# Chain of purified recombinant human GAC (GLS1) (O94925 other isoform, or with tags, fused parts or gaps): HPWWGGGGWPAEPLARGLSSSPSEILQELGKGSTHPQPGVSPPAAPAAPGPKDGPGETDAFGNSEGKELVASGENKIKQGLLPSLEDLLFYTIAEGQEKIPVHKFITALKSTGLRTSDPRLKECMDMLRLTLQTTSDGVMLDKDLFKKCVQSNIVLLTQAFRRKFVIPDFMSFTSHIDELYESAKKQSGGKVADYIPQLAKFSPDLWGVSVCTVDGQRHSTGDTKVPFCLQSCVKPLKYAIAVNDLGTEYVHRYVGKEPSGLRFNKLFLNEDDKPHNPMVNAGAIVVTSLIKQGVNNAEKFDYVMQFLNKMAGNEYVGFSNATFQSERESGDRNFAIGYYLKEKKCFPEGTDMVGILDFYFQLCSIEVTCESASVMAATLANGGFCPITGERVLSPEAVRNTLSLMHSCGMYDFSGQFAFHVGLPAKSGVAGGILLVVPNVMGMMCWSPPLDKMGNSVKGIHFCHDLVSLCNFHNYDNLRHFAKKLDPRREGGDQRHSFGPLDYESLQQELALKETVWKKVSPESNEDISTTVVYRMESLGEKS
# A549 cells = assay: Proliferation Assay (A549 viability, Cell Titer Fluor, 72 hours); format: cell-based; details: Homo sapiens, A549, 72 h
# Procedure, shortened: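 A549 cells seeded at 1000 cells/well, rested 24 h, then exposed to compound in 0.5% DMSO for 72 h at 37 °C. Viability read by Cell Titer Fluor fluorescence; IC50 from four-parameter logistic fit.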
IC50 [1] [nM],EC50 (A549 cells) [nM],Compound
< 100,100 to 500,"CCNC(=O)c1nnc(CCC(F)Cn2cc(C(=O)NCc3cccc(OC(F)(F)F)c3)nn2)s1 (centres unmarked) [Example 522, N-ethyl-5-{3-fluoro-4-[4-({[3-(trifluoromethoxy)phenyl]methyl}carbamoyl)-1H-1,2,3-triazol-1-yl]butyl}-1,3,4-thiadiazole-2-carboxamide]"
< 100,500 to 5000,"O=C(Nc1nnc(CCC(F)Cn2cc(C(=O)NCc3cc(OC(F)(F)F)ccc3F)nn2)s1)c1cccnc1 (centres unmarked) [Example 577, N-(5-(3-fluoro-4-(4-((2-fluoro-5-(trifluoromethoxy)benzyl)carbamoyl)-1H-1,2,3-triazol-1-yl)butyl)-1,3,4-thiadiazol-2-yl)nicotinamide]"
500 to 5000,> 5000,"O=C(CN1CC(F)C1)Nc1cn(CC(F)CCn2cc(C(=O)NCc3ncccc3F)nn2)nn1 (centres unmarked) [Example 409, 1-(3-fluoro-4-{4-[2-(3-fluoroazetidin-1-yl)acetamido]-1H-1,2,3-triazol-1-yl}butyl)-N-[(3-fluoropyridin-2-yl)methyl]-1H-1,2,3-triazole-4-carboxamide]"
100 to 500,500 to 5000,"O=C(CN1CC(F)(F)C1)Nc1cn(CCCCn2cc(C(=O)NCc3cc(Cl)ccc3F)nn2)nn1 [Example 352, N-[(5-chloro-2-fluorophenyl)methyl]-1-(4-{4-[2-(3,3-difluoroazetidin-1-yl)acetamido]-1H-1,2,3-triazol-1-yl}butyl)-1H-1,2,3-triazole-4-carboxamide]"
< 100,< 100,"O=C(NCc1cccc(OC(F)(F)F)c1)c1cn(CC(F)CCc2nnc(C(=O)NCc3cncc(C(F)(F)F)c3)s2)nn1 (centres unmarked) [Example 483, 5-{3-fluoro-4-[4-({[3-(trifluoromethoxy)phenyl]methyl}carbamoyl)-1H-1,2,3-triazol-1-yl]butyl}-N-{[5-(trifluoromethyl)pyridin-3-yl]methyl}-1,3,4-thiadiazole-2-carboxamide]"
500 to 5000,> 5000,"O=C(CN1CC(F)(F)C1)Nc1cn(CC(F)CCn2cc(C(=O)NCc3ccccn3)nn2)nn1 (centres unmarked) [Example 392, 1-(4-{4-[2-(3,3-difluoroazetidin-1-yl)acetamido]-1H-1,2,3-triazol-1-yl}-3-fluorobutyl)-N-(pyridin-2-ylmethyl)-1H-1,2,3-triazole-4-carboxamide]"
100 to 500,100 to 500,"O=C(NCc1ccccc1)c1cn(CCC(F)Cn2cc(C(=O)NCc3cc(C(F)(F)F)ccn3)nn2)nn1 (centres unmarked) [Example 460, 1-{4-[4-(benzylcarbamoyl)-1H-1,2,3-triazol-1-yl]-2-fluorobutyl}-N-{[4-(trifluoromethyl)pyridin-2-yl]methyl}-1H-1,2,3-triazole-4-carboxamide]"
< 100,< 100,"O=C(NCc1cncc(C(F)(F)F)c1)c1cn(CCCCn2cc(C(=O)NCc3cc(C(F)(F)F)ccn3)nn2)nn1 [Example 141, 1-{4-[4-({[4-(trifluoromethyl)pyridin-2-yl]methyl}carbamoyl)-1H-1,2,3-triazol-1-yl]butyl}-N-{[5-(trifluoromethyl)pyridin-3-yl]methyl}-1H-1,2,3-triazole-4-carboxamide]"
< 100,< 100,"O=C(NCc1ccc(C(F)(F)F)cn1)c1cn(CCC(F)Cn2cc(C(=O)NCc3cc(OC(F)(F)F)ccc3F)nn2)nn1 (centres unmarked) [Example 441, 1-{2-fluoro-4-[4-({[5-(trifluoromethyl)pyridin-2-yl]methyl}carbamoyl)-1H-1,2,3-triazol-1-yl]butyl}-N-{[2-fluoro-5-(trifluoromethoxy)phenyl]methyl}-1H-1,2,3-triazole-4-carboxamide]"
< 100,< 100,"CC(=O)Nc1ccc(CCCCc2nnc(C(=O)NCc3cccc(OC(F)(F)F)c3)s2)nn1 [Example 599, 5-(4-(6-acetamidopyridazin-3-yl)butyl)-N-(3-(trifluoromethoxy)benzyl)-1,3,4-thiadiazole-2-carboxamide]"
